The text below walks through data of ChEMBL document CHEMBL1146726, “Linker-modified quinoline derivatives targeting HIV-1 integrase: synthesis and biological activity” (Bioorg Med Chem Lett, 2004).

Experiment [1] concerns Human immunodeficiency virus 1. Put plainly: Inhibition of particle production in de novo infection assay of HIV infected CEM cells. It counts as functional, organism-based. The conditions noted are these: Human immunodeficiency virus 1, CCRF-CEM.
Experiment [2] has as its target Human immunodeficiency virus type 1 integrase (Human immunodeficiency virus 1, UniProt Q7ZJM1). Kind of experiment: In vitro inhibition of recombinant integrase activity in a standard 3'-processing assay.
The test system of another experiment is CCRF-CEM. Kind of experiment: Concentration that inhibits 50% of viral particle production in de novo infection assay of CEM cells (ex vivo); Not reached. It counts as functional, cell-based, Homo sapiens.

The term IC50 denotes the midpoint of a concentration-inhibition curve.

Sequence of Human immunodeficiency virus type 1 integrase (Q7ZJM1 whole entry): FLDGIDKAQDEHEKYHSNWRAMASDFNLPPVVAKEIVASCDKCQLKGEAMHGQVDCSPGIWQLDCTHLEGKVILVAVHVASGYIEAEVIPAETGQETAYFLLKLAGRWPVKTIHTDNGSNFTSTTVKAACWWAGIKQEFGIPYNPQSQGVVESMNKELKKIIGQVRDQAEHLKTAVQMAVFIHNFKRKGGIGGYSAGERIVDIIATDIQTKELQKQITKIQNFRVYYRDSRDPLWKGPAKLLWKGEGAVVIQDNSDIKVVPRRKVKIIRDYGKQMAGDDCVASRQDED

Take `O=C(Nc1ccc2ccc(C(=O)O)c(O)c2n1)c1ccccc1`: the IC50 in experiment [1] and in experiment [2] was more than 100 µM in each case. Regarding `O=C(Nc1ccc(O)c(O)c1)Nc1ccc2ccc(C(=O)O)c(O)c2n1`, the half-inhibitory concentration (IC50) in experiment [1] and in experiment [2] was more than 100 µM each time. With `O=C(Nc1ccc(O)c(O)c1)c1ccc2ccc(C(=O)O)c(O)c2n1`, the IC50 in experiment [1] is 30 µM; in experiment [2], 0.9 µM.

With `O=C(NCc1ccc(O)c(O)c1O)c1ccc2ccc(C(=O)O)c(O)c2n1`, the values for the IC50 in experiment [1] and in experiment [2] were 4 µM and 1.5 µM, respectively. For `COc1ccc(CNC(=O)Nc2ccc3ccc(C(=O)O)c(O)c3n2)cc1`, in that order: more than 100 µM and more than 100 µM.

For `O=C(NNc1ccc([N+](=O)[O-])cc1[N+](=O)[O-])c1ccc2ccc(C(=O)O)c(O)c2n1`, the values for the half-inhibitory concentration (IC50) in experiment [1] and in experiment [2] were more than 100 µM and 3 µM, respectively. For `O=C(NCc1ccc(O)c(O)c1)Nc1ccc2ccc(C(=O)O)c(O)c2n1`, in that order: 55 µM and more than 100 µM. Regarding `COc1cc(CNC(=O)c2ccc3ccc(C(=O)O)c(O)c3n2)cc(O)c1O`, the values for the IC50 in experiment [1] and in experiment [2] were 25 µM and 6.5 µM, respectively. Regarding `O=C(O)c1ccc2ccc(CCc3ccc(O)c(O)c3)nc2c1O`, in the experiment on CCRF-CEM, the IC50 entry was “Not reached”.

Consider `O=C(NCc1cc(O)cc(O)c1)c1ccc2ccc(C(=O)O)c(O)c2n1`, for which the concentration for half-maximal inhibition (IC50) in experiment [1] and in experiment [2] was more than 100 µM in each case.

Take `O=C(NCc1cccc(O)c1O)c1ccc2ccc(C(=O)O)c(O)c2n1`: the IC50 in experiment [1] amounted to 40 µM; in experiment [2] it was 5 µM. For `O=C(NCc1ccc(O)c(O)c1)c1ccc2ccc(C(=O)O)c(O)c2n1`, in that order: 2 µM and 5 µM. On to `O=C(/C=C(\O)c1ccccc1)c1ccc2ccc(C(=O)O)c(O)c2n1`, for which the values for the IC50 in experiment [1] and in experiment [2] were more than 100 µM and 30 µM, respectively. For `O=C(NCc1ccc(O)cc1O)c1ccc2ccc(C(=O)O)c(O)c2n1`, in that order: 10 µM and 5 µM. As to `O=C(O)c1ccc2ccc(/C=C/c3cc(O)cc(O)c3)nc2c1O`, the IC50 in experiment [1] was more than 100 µM.

Regarding `COc1cc(NC(=O)c2ccc3ccc(C(=O)O)c(O)c3n2)cc(O)c1O`, the IC50 was found to be 2 µM in experiment [1] and 6.5 µM in experiment [2]. `O=C(O)c1ccc2ccc(/C=C/c3ccc(O)c(O)c3)nc2c1O` showed an IC50 in experiment [1] of 1 µM. Consider `O=C(NNc1ccccc1)c1ccc2ccc(C(=O)O)c(O)c2n1`, for which the half-maximal inhibitory concentration (IC50) was 45 µM in experiment [1] and more than 100 µM in experiment [2].
